Source: patent US10639345B2, “Compositions for preserving photoreceptor cells, retinal pigment epithelial cells, or visual function” (Massachusetts Eye and Ear Infirmary, priority 2010, dated 2020)
Where a SMILES comes first, the peptide text is derived from it. The star is where a group is joined. Cbz = O=C(OCc1ccccc1)*; CH2F = FC*

Key:
[1] = test system: CD11b-positive macrophage/microglia; assay: CD11b-positive cell infiltration after retinal detachment in RIP-3−/− eyes; assay type: in vivo, RIP-3−/− mice
Procedure: Immunofluorescence was performed as previously reported (Hisatomi et al. (2008) J CLIN INVEST 118:2025-2038. The enucleated eyes were frozen in OCT compound (Sakura Finetechnical Co., Tokyo, Japan). Five μm-thick sections were cut, air dried and fixed in cold acetone for 10 minutes. Rat anti-CD11b (1:50; BD Biosciences, San Diego, Calif.) was used as the primary antibody and incubated at 4° C. overnight. A nonimmune serum was used as a negative control. Alexa Fluor 594-conjugated goat anti-rat IgG (Invitrogen, Carlsbad, Calif.) was used as the secondary antibody and incubated at room temperature for one hour. The specimens were imaged by confocal microscopy using the Leica HCX APOL40× lens.
Since the release of intracellular content in necrosis results in secondary inflammation, changes in the inflammatory response after retinal detachment were investigated by immunohistochemistry and immunofluorescence with an antibody against CD11b. FIG. 11A-B show IHC for CD11b (FIG. 11A) and quantification of CD11b-positive cells in control retina without retinal detachment and in retina treated with vehicle, Z-VAD or Z-VAD+Nec-1 (n=6 each) (FIG. 11B) at three days after retinal detachment. […]
FIG. 11C-D show immunofluorescence for CD11b (FIG. 11C) and quantification of CD11b-positive macrophage/microglia (FIG. 11D) in WT and RIP-3−/− retina after retinal detachment.

photoreceptors [2] = assay: TEM quantification of apoptotic and necrotic photoreceptor death after retinal detachment; assay type: in vivo; conditions: day three after retinal detachment, ONL
Procedure: The morphology of photoreceptors after retinal detachment was examined by transmission electron microscopy (TEM) and propidium iodide (PI) staining and the effect of treatment with Z-VAD and/or a Nec-1 compound of Formula I-C was analyzed.
TEM was performed as previously described (Hisatomi T et al. (2008). J. CLIN. INVEST. 118:2025-2038). […] Over 200 photoreceptors each eye were photographed and subjected to quantification of cell death modes in a masked fashion. Photoreceptors showing cellular shrinkage and nuclear condensation were defined as apoptotic cells, while photoreceptors associated with cellular and organelle swelling and discontinuities in nuclear and plasma membrane were defined as necrotic cells. The presence of electron-dense granular materials were reported to occur subsequent to both apoptotic and necrotic cell death and cells with these findings were labeled simply as end-stage cell death/unclassified (Hisatomi T et al. (2003) AM. J. PATHOL. 162:1869-1879; Erickson P A et al. (1983) INVEST. OPHTHALMOL. VIS. SCI. 24:927-942).
On day three after retinal detachment, photoreceptor death caused by apoptosis was almost twice that caused by necrosis in vehicle-treated retina (% apoptotic cells: 21.7±1.3%, necrotic cells: 13.3±1.0%, unclassified: 4.4±1.4%; FIGS. 7A and 7E).

photoreceptors [3] = assay: In vivo PI labeling of photoreceptors after retinal detachment in RIP-3−/− retinas; set-up: species or system RIP-3−/− mice; conditions: day 3 after retinal detachment
Procedure: In vivo propidium iodide (PI) staining was performed by injecting 5 μl of PI (50 μg/ml) into the subretinal space three days after retinal detachment. After two hours, the eyes were enucleated and 10 μm thick cryosections were cut, air-dried, and fixed in 100% ethanol. DAPI was used to counterstain the nuclei. The center of the detached retina was photographed by fluorescence microscope, and the number of PI-positive cells in ONL was analyzed by ImageJ software.
FIG. 8C-D show PI staining (FIG. 8C) and quantification of PI-positive photoreceptors (FIG. 8D) on day 3 after retinal detachment in retina treated with vehicle, Z-VAD or Nec-1 (a Nec-1 of Formula I-C) and Z-VAD in RIP-3−/− retina (n=5-6; C and D). *, P<0.05; **, P<0.01. Scale bar, 100 μm.

Fas-L = assay: Fas ligand expression after retinal detachment (real-time PCR); assay type: in vivo; conditions: compared to vehicle treatment
Procedure: Total RNA extraction and reverse transcription were performed as previously reported (Nakazawa T et al. (2006) MOL VIS 12:867-878; Hisatomi T et al. (2008). J CLIN INVEST 118:2025-2038). A real-time PCR assay was performed with Prism 7700 Sequence Detection System (Applied Biosystems, Foster City, Calif.). TaqMan Gene Expression assays were also used to check the expression of MCP-1 (Rn00580555_m1), TNF-α (Rn99999017_m1), and Fas-L (Rn00563754_m1). For relative comparison of each gene, the Ct value of real-time PCR data was analyzed with the ΔΔCt method and normalized by an endogenous control (18S ribosomal RNA).
TNF-α and Fas-L are potent inducer of programmed necrosis as well as apoptosis (Degterev A (2005) NAT CHEM BIOL 1:112-119). The effectiveness of a TNF-α blockade after retinal detachment was measured. […] However, other factors may also contribute to photoreceptor death, as the effect of TNF-α blockade was not as effective as that of Nec-1+Z-VAD treatment. Further, Fas ligand expression increased in Z-VAD-treated retina after retinal detachment compared to vehicle treatment (FIG. 12C), and may play a role in promoting necrotic photoreceptor death in Z-VAD-treated eyes.

photoreceptors [4] = assay: Poly I:C-induced dry AMD model, ONL thickness; assay type: in vivo, mice
Description: In this example, the mechanism of photoreceptor cell death in dry AMD was investigated using a polyinosinic:polycytidylic acid (Poly I:C)-induced dry AMD model (Yang et al. (2009) NEJM 359(14):1456-63). Poly I:C is a synthetic double-stranded RNA (dsRNA) analog that activates toll-like receptor 3 (TLR3) signaling (FIG. 20A). Furthermore, dsRNA are known to exist in the drusen of human AMD patients. As depicted in FIG. 20A, activation of the TLR3 signaling results in activation of RIP-1 kinase pathway. […] In the experiments described herein, 2-3 μl of Poly I:C (1 mg/ml) was injected into the subretinal space of the eye (e.g., approximately 2-3 μg of Poly I:C was administered to the eye) to induce AMD.
The thickness of the outer nuclear layer (ONL) was also determined in WT or RIP-3−/− mice at 14 days following treatment with poly I:C. Sections were randomly selected from either WT or RIP-3−/− mice following poly I:C treatment and the retina was photographed. The ONL thickness was measured in each section by masked observers.
To determine the effect of Nec-1 and a pan-caspase inhibitor in the treatment of AMD, TUNEL assay was performed to assess photoreceptor cell death in the poly I:C induced AMD model. […] The thickness of ONL was also measured.

photoreceptors [5] = assay: TUNEL-positive cells after retinal detachment in RIP-3−/− mice; assay type: in vivo; conditions: three days after retinal detachment
Procedure: The role of RIP-3 in RIP-mediated programmed necrosis in photoreceptor loss after retinal detachment was investigated in RIP-3 knockout (RIP-3−/−) mice. TUNEL assays were used to measure the amount of apoptotic and necrotic cell death (Grasl-Kraupp et al., HEPTALOGY (1995) 21(5):1465-8). TUNEL and quantification of TUNEL positive cells in ONL were performed as described above by using the ApopTag Fluorescein In Situ Apoptosis Detection Kit (Millipore, Billerica, Mass.).

COC(=O)CC(NC(=O)C(C)NC(=O)C(NC(=O)OCc1ccccc1)C(C)C)C(=O)CF (stereo not drawn) [Z-VAD, Benzyloxycarbonyl-Val-Ala-Asp(OMe)-fluoromethylketone] (Cbz-Val-Ala-Asp(OMe)-CH2F; configuration not given here)
infiltration of CD11-b positive cells in the retina and subretinal space [1]: even less infiltration | % apoptotic cells (TEM) (photoreceptors [2]): 11.4±1.2% | % necrotic cells (TEM) (photoreceptors [2]): 21.9±2.3% | % unclassified (end-stage cell death, TEM) (photoreceptors [2]): 5.6±1.4% | number of photoreceptors with disrupted plasma membrane (in vivo PI-labeling) (photoreceptors [3]): not increased | Fas ligand expression (Fas-L): increased | ONL thickness (photoreceptors [4]): minimal effect | number of TUNEL-positive cells (photoreceptors [5]): 407.7±188.9 cells/mm^2
